Test results reported in patent US20240246942A1, “KINASE INHIBITORS FOR THE TREATMENT OF NEURODEGENERATIVE DISEASES” (priority 2020, published 2024).
Where two headings read alike, the source gives them in different places.

Tests used:
Experiment in all cases: biochemical
[1] = target: T1, panel of 374 wild-type kinases (Homo sapiens, UniProt P35916); settings: read-out: % Enzyme Activity (relative to DMSO controls), FLT4/VEGFR3
T1 construct: purchased Reaction Biology Corporation

[2] = target: T2, panel of 374 wild-type kinases (Homo sapiens, UniProt Q07002); settings: read-out: % Enzyme Activity (relative to DMSO controls), CDK18/cyclin Y (PCTK3)
T2 construct: purchased Reaction Biology Corporation

[3] = target: T3, panel of 374 wild-type kinases (Homo sapiens, UniProt P07949); settings: read-out: % Enzyme Activity (relative to DMSO controls), kinase RET
T3 construct: purchased Reaction Biology Corporation

[4] = target: T4, panel of 374 wild-type kinases (Homo sapiens, UniProt Q05513); settings: read-out: % Enzyme Activity (relative to DMSO controls), kinase PKCzeta
T4 construct: purchased Reaction Biology Corporation
T4 sequence (Q05513 1-592): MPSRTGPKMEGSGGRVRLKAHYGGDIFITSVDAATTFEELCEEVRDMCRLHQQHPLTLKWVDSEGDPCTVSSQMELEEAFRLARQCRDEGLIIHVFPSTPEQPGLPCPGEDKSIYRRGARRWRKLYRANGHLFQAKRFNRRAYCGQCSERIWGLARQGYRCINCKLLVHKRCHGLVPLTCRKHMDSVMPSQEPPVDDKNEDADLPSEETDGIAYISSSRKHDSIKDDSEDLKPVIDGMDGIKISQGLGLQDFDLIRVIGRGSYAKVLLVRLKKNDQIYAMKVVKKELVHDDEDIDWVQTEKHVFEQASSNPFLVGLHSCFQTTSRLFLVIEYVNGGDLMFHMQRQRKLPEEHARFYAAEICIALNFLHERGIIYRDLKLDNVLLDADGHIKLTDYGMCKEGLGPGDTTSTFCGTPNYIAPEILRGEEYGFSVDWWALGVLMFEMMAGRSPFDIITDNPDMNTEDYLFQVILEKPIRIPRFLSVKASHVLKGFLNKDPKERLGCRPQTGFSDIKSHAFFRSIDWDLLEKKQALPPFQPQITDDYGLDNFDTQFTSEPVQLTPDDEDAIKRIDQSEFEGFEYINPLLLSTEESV

[5] = target: T5, panel of 374 wild-type kinases (Homo sapiens, UniProt P41279); settings: read-out: % Enzyme Activity (relative to DMSO controls), COT1/MAP3K8
T5 construct: purchased Reaction Biology Corporation

[6] = target: T6, panel of 374 wild-type kinases (Homo sapiens, UniProt Q00526)
T6 construct: purchased Reaction Biology Corporation

[7] = target: T7, panel of 374 wild-type kinases (Homo sapiens, UniProt Q9BXA6); settings: read-out: % Enzyme Activity (relative to DMSO controls), kinase SSTK/TSSK6
T7 construct: purchased Reaction Biology Corporation

[8] = target: T8, panel of 374 wild-type kinases (Homo sapiens, UniProt Q8IYT8); settings: read-out: % Enzyme Activity (relative to DMSO controls), kinase ULK2
T8 construct: purchased Reaction Biology Corporation
T8 sequence (Q8IYT8 1-1036): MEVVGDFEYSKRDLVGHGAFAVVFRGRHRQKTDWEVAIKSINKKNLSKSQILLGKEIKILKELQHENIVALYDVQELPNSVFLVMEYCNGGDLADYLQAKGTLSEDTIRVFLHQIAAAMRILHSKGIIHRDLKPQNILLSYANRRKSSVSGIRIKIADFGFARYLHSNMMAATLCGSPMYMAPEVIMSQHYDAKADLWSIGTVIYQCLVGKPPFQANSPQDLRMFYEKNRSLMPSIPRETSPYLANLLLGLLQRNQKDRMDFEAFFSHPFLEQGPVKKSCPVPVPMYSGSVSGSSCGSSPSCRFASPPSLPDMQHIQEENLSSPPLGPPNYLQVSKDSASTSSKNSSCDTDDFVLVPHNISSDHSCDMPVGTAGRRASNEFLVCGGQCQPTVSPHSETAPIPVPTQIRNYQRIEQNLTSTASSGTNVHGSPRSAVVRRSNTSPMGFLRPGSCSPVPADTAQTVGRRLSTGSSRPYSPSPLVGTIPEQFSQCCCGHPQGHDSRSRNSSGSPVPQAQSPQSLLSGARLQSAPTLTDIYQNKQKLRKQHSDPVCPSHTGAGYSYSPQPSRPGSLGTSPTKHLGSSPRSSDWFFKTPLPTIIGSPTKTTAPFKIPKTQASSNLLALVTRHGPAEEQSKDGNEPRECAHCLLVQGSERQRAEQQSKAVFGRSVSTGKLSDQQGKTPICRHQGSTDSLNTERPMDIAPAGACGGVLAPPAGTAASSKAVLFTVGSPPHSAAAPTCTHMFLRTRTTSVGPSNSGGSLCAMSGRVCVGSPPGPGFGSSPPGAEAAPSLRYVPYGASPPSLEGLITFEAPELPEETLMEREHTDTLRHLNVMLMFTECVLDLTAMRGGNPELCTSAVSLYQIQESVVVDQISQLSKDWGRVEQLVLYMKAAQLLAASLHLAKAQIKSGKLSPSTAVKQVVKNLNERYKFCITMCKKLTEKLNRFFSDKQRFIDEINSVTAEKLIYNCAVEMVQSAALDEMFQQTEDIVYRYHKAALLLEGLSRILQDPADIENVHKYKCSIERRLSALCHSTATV

[9] = read-out: % Enzyme Activity (relative to DMSO controls), CDK3/cyclin E2
[10] = read-out: % Enzyme Activity (relative to DMSO controls), CDK3/cyclin E

T2 sequence (Q07002 whole entry): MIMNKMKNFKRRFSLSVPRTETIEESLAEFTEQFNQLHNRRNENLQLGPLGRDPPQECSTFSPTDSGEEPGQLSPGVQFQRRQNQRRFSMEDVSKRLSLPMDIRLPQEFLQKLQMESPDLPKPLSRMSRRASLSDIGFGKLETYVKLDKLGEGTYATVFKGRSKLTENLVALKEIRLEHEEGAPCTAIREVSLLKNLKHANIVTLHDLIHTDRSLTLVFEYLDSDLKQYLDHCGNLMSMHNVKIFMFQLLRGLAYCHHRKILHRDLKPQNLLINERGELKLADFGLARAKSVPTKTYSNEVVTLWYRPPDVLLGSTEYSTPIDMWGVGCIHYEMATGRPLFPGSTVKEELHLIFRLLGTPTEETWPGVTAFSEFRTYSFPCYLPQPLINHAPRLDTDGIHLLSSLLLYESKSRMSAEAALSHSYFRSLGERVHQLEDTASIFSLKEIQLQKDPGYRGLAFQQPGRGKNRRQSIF
T3 sequence (P07949 29-1114): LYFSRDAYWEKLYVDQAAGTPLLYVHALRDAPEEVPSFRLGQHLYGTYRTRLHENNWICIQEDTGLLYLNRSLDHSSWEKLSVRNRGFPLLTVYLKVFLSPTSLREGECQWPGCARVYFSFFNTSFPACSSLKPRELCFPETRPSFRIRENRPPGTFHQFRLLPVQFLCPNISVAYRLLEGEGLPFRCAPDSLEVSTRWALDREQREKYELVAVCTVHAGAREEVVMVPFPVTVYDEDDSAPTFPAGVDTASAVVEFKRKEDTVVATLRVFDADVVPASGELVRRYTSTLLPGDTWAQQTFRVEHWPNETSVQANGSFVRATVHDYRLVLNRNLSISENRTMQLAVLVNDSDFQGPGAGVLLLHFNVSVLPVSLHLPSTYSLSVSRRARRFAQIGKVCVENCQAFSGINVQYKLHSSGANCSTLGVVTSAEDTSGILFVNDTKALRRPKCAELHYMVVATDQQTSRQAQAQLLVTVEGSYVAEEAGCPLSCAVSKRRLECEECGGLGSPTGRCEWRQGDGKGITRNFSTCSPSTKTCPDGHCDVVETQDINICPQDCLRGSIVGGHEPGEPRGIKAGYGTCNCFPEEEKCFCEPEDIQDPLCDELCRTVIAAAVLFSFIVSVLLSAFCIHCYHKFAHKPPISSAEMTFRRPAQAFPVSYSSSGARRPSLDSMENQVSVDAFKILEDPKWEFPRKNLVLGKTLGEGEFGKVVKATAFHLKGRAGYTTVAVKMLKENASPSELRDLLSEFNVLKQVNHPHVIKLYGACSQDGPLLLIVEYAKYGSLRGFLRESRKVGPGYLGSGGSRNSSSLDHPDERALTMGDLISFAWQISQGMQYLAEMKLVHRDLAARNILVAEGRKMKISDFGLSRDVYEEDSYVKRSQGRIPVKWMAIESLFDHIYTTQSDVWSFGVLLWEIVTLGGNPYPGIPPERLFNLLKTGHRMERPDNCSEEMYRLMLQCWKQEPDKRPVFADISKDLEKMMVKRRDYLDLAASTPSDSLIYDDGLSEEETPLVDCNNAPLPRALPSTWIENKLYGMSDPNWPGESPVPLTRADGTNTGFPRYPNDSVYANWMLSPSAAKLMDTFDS
T1 sequence (P35916 25-1363): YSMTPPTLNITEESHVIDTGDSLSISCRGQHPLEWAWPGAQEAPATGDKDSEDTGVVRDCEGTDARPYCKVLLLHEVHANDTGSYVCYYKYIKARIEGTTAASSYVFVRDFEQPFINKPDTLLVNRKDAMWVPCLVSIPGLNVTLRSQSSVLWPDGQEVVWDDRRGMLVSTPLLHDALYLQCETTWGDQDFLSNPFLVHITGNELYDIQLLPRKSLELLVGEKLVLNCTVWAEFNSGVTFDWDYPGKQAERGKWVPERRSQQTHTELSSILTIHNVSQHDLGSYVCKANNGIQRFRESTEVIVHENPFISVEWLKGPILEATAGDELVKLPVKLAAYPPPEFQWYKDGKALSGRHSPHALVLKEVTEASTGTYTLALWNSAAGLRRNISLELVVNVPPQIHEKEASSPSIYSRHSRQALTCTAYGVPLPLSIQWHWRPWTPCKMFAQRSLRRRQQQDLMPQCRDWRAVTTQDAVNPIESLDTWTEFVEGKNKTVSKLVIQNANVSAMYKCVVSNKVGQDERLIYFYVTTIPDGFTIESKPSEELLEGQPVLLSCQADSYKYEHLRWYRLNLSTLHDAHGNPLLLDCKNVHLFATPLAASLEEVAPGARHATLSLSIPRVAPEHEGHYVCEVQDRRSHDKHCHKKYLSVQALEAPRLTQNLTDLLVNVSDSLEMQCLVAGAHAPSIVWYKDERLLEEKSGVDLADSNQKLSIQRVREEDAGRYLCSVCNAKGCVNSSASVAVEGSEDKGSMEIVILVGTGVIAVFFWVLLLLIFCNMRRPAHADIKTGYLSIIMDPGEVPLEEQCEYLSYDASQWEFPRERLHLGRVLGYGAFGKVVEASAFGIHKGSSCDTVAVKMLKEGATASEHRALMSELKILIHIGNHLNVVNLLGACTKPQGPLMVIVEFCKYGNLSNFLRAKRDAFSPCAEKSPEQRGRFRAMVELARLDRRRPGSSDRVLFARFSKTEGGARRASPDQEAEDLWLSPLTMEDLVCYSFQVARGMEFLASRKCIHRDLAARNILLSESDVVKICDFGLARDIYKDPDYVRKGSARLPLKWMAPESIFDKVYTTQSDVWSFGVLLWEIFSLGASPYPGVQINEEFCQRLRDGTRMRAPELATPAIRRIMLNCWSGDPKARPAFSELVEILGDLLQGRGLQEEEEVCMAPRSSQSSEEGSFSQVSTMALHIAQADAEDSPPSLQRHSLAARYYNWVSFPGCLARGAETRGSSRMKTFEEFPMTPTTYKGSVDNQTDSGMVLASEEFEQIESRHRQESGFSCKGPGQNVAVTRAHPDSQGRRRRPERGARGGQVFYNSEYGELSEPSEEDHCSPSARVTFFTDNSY
T5 sequence (P41279 whole entry): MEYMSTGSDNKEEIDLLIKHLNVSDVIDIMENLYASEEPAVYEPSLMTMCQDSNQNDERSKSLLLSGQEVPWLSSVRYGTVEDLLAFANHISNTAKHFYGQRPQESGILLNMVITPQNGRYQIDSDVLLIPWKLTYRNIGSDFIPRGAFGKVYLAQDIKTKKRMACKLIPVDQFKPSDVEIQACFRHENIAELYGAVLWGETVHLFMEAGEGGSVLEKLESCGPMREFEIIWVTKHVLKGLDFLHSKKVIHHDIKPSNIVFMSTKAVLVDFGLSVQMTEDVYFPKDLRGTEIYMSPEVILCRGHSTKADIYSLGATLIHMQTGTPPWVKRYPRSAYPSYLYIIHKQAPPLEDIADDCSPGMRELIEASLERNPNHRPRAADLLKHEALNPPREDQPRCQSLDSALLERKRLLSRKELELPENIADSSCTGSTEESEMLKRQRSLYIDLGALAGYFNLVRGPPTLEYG
T7 sequence (Q9BXA6 whole entry): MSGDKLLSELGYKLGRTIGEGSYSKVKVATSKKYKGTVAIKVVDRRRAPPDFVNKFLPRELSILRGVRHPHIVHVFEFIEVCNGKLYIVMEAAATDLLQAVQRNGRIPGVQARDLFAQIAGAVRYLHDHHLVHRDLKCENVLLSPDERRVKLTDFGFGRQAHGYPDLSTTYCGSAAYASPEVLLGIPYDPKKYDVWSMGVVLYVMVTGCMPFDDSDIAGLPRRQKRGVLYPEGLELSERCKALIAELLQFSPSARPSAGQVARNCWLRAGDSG
T6 sequence (Q00526 whole entry): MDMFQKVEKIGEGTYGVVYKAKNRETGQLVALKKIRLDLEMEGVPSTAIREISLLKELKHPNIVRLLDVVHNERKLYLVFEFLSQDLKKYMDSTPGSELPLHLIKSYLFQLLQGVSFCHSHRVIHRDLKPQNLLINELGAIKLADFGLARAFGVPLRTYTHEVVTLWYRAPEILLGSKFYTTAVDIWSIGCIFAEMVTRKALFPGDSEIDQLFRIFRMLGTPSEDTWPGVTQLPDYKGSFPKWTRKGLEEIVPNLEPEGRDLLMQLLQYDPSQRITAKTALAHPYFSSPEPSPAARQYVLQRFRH

Row | SMILES | remaining activity at 5 µM [1] [%] | remaining activity at 5 µM [2] [%] | remaining activity at 5 µM [3] [%] | remaining activity at 5 µM [4] [%] | remaining activity at 5 µM [5] [%] | remaining activity at 5 µM [6, 9] [%] | remaining activity at 5 µM [6, 10] [%] | remaining activity at 5 µM [7] [%] | remaining activity at 5 µM [8] [%] | remaining activity at 10 µM ([1]; 10 uM) [%] | remaining activity at 10 µM ([2]; 10 uM) [%] | remaining activity at 10 µM ([3]; 10 uM) [%] | remaining activity at 10 µM ([4]; 10 uM) [%] | remaining activity at 10 µM ([5]; 10 uM) [%] | remaining activity at 10 µM [6, 9] [%] | remaining activity at 10 µM [6, 10] [%] | remaining activity at 10 µM ([7]; 10 uM) [%] | remaining activity at 10 µM ([8]; 10 uM) [%]
1 | O=C(Nc1cnn(-c2csc(C(=O)NC3COC3)c2)c1)Nc1ccccc1Cl [Compound 17, 4-(4-(3-(2-chlorophenyl)ureido)-1H-pyrazol-1-yl)-N-(oxetan-3-yl)thiophene-2-carboxamide] | 93.8 | 101 | 97.8 | 105 | 92.7 | 95.8 | 107 | 103 | 196 | – | – | – | – | – | – | – | – | –
2 | Cc1sc(C(=O)NC2COC2)cc1-n1cc(NC(=O)Nc2c(F)cccc2Cl)cn1 [Compound 27, 4-(4-(3-(2-chloro-6-fluorophenyl)ureido)-1H-pyrazol-1-yl)-5-methyl-N-(oxetan-3-yl)thiophene-2-carboxamide] | – | – | – | – | – | – | – | – | – | 81.9 | 119 | 113 | 104 | 105 | 103 | 91.2 | 94 | 74.9
3 | O=C(Nc1cnn(-c2csc(C(=O)NC3COC3)c2)c1)Nc1c(F)cccc1Cl [Compound 25, 4-(4-(3-(2-chloro-6-fluorophenyl)ureido)-1H-pyrazol-1-yl)-N-(oxetan-3-yl)thiophene-2-carboxamide] | 86.6 | 91.9 | 98.1 | 93.6 | 93.6 | 109 | 92.2 | 103 | 105 | – | – | – | – | – | – | – | – | –
